According to BindingDB's records for doi:10.1007/s00044-013-0847-2 (n/a, 2013):

Experiments:
Cholinesterase = Cholinesterase (Homo sapiens, UniProt P06276); assay: Inhibition of BChE (unknown origin) using butyryl thiocholine iodide as substrate after 30 mins by Ellman's method
Acetylcholinesterase = Acetylcholinesterase (Homo sapiens, UniProt P22303); assay: Inhibition of AChE (unknown origin) using acetyl thiocholine iodide as substrate after 30 mins by Ellman's method
Sequence of Acetylcholinesterase (P22303 whole entry): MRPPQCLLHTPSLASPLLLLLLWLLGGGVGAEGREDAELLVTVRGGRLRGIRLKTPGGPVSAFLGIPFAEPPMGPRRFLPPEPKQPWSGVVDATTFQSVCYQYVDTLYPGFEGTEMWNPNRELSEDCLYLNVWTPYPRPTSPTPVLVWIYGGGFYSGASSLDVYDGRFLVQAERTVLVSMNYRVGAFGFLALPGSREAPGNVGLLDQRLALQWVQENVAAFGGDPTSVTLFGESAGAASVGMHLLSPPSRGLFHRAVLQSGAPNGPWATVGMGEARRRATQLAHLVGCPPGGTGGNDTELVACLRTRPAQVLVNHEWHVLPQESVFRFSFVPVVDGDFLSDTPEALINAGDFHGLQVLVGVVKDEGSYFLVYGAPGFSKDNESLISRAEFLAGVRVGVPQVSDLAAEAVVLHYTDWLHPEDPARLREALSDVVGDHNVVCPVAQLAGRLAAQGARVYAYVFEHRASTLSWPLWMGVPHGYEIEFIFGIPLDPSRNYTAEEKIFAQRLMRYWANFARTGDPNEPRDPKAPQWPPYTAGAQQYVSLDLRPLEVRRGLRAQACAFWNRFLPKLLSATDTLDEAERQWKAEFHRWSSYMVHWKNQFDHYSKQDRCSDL

Sequence of Cholinesterase (P06276 whole entry): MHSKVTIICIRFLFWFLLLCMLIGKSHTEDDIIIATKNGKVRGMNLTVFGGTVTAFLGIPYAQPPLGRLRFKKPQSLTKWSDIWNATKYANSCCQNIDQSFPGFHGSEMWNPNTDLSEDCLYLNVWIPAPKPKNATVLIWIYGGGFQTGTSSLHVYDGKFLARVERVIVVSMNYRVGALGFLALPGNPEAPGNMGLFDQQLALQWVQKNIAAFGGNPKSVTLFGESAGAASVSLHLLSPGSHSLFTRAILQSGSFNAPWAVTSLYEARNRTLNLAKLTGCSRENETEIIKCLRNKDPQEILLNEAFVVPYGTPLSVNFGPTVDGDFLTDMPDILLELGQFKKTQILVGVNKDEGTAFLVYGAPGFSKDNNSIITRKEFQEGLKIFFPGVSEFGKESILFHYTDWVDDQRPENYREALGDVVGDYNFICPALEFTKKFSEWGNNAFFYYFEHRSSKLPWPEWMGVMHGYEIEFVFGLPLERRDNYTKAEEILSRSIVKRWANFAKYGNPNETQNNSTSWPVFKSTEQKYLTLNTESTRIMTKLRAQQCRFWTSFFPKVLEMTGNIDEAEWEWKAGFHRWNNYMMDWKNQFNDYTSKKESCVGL

Structure (SMILES)	IC50 (Cholinesterase)	IC50 (Acetylcholinesterase)
O=C1NC(=O)C(=CNNC(=S)Nc2cccc(C(F)(F)F)c2)C(=O)N1	136 µM	40.7 µM
O=C1NC(=S)NC(=O)C1=CNNC(=S)Nc1ccc(Cl)cc1	75.4 µM	121 µM
O=C1NC(=S)NC(=O)C1=CNNC(=S)Nc1ccccc1	57.1 µM	115 µM
NC(=S)NNC=C1C(=O)NC(=O)NC1=O	56.5 µM	119 µM
CC(=O)NC=C1C(=O)NC(=O)NC1=O	116 µM	90.9 µM
O=C1NC(=S)NC(=O)C1=CNNC(=S)Nc1ccc(C(F)(F)F)cc1	8.1 µM	99.4 µM
O=C(NNC=C1C(=O)NC(=S)NC1=O)Nc1ccccc1	3.31 µM	74.2 µM
COc1ccc(NC(=S)NNC=C2C(=O)NC(=S)NC2=O)cc1	56.8 µM	206 µM
O=C1NC(=S)NC(=O)C1=CNNC(=S)Nc1ccc(Br)cc1	68.4 µM	79.2 µM
N#Cc1ccc(NC(=S)NNC=C2C(=O)NC(=O)NC2=O)cc1	231 µM	–
O=C1NC(=S)NC(=O)C1=CNNC(=S)Nc1ccc(F)cc1	57.8 µM	78.4 µM
Cc1cccc(Cl)c1NC(=S)NNC=C1C(=O)NC(=O)NC1=O	8.81 µM	–
O=C1NC(=O)C(=CNNC(=O)Nc2ccccc2)C(=O)N1	38.5 µM	–
